Data: BindingDB's records for doi:10.1074/jbc.M804990200 (Harvard Medical School, 2008)

Assays:
Experiment in all cases: Continuous Assay
[1] = target: Dihydroorotate dehydrogenase (quinone), mitochondrial (Homo sapiens, UniProt Q02127)
Experimental: (§1) Assay was determined using a continuous assay.

[2] = target: T1, Dihydroorotate dehydrogenase (quinone), mitochondrial (Plasmodium falciparum, UniProt Q54A96)
T1 sequence (Q54A96 whole entry): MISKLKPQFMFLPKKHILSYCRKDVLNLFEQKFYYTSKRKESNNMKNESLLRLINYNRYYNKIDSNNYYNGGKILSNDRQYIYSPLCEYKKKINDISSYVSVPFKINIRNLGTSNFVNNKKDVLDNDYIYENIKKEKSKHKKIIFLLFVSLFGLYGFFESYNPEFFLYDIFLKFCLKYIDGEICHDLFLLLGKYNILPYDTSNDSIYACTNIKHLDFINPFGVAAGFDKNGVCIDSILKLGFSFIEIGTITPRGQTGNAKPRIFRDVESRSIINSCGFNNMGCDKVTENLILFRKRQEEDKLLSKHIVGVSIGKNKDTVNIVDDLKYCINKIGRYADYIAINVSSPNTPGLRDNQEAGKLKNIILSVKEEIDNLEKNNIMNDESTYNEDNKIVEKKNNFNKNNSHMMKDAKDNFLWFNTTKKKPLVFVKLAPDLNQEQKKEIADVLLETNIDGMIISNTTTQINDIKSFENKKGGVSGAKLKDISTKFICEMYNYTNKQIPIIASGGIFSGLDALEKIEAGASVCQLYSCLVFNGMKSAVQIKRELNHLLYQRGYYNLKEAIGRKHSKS
Experimental: as §1

[3] = target: T2, Dihydroorotate dehydrogenase (quinone), mitochondrial [100-517] (Plasmodium berghei (strain Anka), UniProt A0A509AEH5)
T2 construct: 100-517
T2 sequence (A0A509AEH5 whole entry): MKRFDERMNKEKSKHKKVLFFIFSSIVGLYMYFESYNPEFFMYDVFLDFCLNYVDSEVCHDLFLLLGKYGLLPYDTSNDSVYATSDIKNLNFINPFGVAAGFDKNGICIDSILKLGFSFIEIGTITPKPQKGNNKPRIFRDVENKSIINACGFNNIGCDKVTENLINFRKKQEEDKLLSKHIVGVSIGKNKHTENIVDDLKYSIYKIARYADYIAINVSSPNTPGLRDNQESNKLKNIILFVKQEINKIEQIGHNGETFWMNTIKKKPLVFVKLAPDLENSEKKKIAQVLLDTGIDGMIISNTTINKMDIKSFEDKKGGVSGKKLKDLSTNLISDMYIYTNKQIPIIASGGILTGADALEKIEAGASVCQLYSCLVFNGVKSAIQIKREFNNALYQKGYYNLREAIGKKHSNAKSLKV
Experimental: as §1

[4] = target: T3, Dihydroorotate dehydrogenase (quinone), mitochondrial (Plasmodium vivax (strain Salvador I), UniProt A5K1N1)
T3 sequence (A5K1N1 whole entry): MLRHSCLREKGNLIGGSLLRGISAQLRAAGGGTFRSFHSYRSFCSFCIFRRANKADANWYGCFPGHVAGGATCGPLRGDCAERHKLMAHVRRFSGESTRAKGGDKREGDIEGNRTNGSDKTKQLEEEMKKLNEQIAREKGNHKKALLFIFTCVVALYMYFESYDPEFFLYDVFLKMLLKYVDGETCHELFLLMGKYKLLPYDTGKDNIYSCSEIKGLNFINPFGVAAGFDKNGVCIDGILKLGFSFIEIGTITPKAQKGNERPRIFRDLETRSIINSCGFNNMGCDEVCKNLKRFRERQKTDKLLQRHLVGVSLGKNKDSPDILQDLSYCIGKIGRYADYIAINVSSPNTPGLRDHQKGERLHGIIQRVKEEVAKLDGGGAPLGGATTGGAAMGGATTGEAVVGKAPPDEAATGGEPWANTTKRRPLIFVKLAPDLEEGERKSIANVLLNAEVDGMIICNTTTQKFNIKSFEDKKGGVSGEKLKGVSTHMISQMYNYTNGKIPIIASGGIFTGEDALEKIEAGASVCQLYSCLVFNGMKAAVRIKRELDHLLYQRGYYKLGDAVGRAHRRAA
Experimental: as §1

Chain of Dihydroorotate dehydrogenase (quinone), mitochondrial (Homo sapiens, UniProt Q02127) (Q02127 whole entry): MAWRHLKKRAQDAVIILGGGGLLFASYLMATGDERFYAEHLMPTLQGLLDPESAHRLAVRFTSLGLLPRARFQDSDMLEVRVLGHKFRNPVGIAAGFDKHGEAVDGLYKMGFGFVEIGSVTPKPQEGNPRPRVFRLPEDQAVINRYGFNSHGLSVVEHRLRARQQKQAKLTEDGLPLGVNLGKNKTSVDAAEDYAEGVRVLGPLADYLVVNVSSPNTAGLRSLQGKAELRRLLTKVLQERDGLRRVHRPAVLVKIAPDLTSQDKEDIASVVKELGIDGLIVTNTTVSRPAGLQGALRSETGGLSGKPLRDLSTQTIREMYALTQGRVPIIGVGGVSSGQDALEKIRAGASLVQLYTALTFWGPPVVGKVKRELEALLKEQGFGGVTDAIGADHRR

With `CCCNC(=O)c1ccc(-n2c(C)cc3ccccc32)s1` [US8703811, 1] the IC50 [1] was greater than 30000 nM and the IC50 [2] was 420 nM.
With `CCOC(=O)c1[nH]c(C)c(Cc2ccc(OCC)cc2)c1C` [US8703811, 6] the IC50 [1] was greater than 30000 nM, the IC50 [3] was 60 nM and the IC50 [2] was 83 nM.
`CCCCCC1CCCc2c1nc1ccccc1c2O` (centres undefined) [US8703811, 3] was tested, and the IC50 [1] was greater than 30000 nM, the IC50 [4] was 510 nM and the IC50 [3] was 110 nM. The IC50 [2] was 340 nM.
In the case of `O=C(NC1CC1)c1ccc(N2CCSc3ccccc32)s1` [US8703811, 5], the IC50 [2] is reported as 250 nM.
`Cc1ccccc1/C=C/c1cc(O)c2ccccc2n1` [US8703811, 2] was tested, and the IC50 [1] was greater than 30000 nM, the IC50 [4] was 5600 nM and the IC50 [3] was 560 nM. It also gave an IC50 [2] of 930 nM.
